Where “and” joins values, the source holds several entries; their conditions need not be identical. Identical values can stand only once.
Columns and labels:
α1 receptors = test: Ligand binding screen at 10 μM
D25 receptors = D25 receptors (Homo sapiens, UniProt P14416); test: Ligand binding screen at 10 μM
M1 receptors = M1 receptors (Homo sapiens, UniProt P11229); test: Ligand binding screen at 10 μM
M3 receptors = M3 receptors (Homo sapiens, UniProt P20309); test: Ligand binding screen at 10 μM
5HT3 receptors = 5HT3 receptors (Homo sapiens, UniProt P46098); test: Ligand binding screen at 10 μM
5HT6 receptors = 5HT6 receptors (Homo sapiens, UniProt P50406); test: Ligand binding screen at 10 μM
[1] = target: T1, α1A (Alpha 1A) adrenergic receptor (Homo sapiens, UniProt P35348); conditions: R-SAT; nr = no significant antagonist or inverse agonist activity up to 1 μM; nr* = nr but significant agonist activity
T1 sequence (P35348 1-466): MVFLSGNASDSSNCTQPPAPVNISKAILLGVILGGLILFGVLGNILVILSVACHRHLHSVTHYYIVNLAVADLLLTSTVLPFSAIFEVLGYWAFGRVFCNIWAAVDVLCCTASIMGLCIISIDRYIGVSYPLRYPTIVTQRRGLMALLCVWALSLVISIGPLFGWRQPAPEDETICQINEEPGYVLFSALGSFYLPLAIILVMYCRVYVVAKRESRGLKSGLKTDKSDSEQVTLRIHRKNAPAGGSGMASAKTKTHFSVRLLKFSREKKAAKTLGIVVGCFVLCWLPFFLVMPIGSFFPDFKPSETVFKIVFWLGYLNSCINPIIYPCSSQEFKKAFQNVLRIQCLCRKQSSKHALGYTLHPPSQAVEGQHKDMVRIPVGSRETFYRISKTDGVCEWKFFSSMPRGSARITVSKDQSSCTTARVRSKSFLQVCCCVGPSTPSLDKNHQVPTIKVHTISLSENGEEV

[2] = steady state kinetics in humans (ref. 13); cited from earlier work
[3] = target: T1, α1A (Alpha 1A) adrenergic receptor; test: cell-based
5-HT6A receptor = 5-HT6A receptor (Homo sapiens, UniProt P50406); test: R-SAT inverse agonist assay
5-HT1A receptor = target: T2, 5-HT1A receptor (Homo sapiens, UniProt P08908); test: R-SAT competitive antagonist assay; conditions: R-SAT; nr = no significant antagonist or inverse agonist activity up to 1 μM; nr* = nr but significant agonist activity
T2 sequence (P08908 1-422): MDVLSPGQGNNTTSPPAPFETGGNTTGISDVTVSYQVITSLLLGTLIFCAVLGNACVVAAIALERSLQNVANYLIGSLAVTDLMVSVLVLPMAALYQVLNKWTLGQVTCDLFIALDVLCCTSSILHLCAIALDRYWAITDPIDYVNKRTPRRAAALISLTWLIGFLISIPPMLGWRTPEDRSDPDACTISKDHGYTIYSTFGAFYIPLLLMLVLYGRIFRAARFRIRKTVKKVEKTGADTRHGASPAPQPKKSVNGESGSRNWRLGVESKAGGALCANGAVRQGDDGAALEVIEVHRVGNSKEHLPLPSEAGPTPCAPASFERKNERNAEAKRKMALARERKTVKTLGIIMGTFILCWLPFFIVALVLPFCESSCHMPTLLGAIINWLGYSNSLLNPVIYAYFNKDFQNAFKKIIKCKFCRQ

M5 muscarinic receptor = target: T3, M5 muscarinic receptor (Homo sapiens, UniProt P08912); test: R-SAT agonist assay; format: cell-based; design: expressed in transfected cells; host or cells: NIH/3T3
T3 sequence (P08912 1-532): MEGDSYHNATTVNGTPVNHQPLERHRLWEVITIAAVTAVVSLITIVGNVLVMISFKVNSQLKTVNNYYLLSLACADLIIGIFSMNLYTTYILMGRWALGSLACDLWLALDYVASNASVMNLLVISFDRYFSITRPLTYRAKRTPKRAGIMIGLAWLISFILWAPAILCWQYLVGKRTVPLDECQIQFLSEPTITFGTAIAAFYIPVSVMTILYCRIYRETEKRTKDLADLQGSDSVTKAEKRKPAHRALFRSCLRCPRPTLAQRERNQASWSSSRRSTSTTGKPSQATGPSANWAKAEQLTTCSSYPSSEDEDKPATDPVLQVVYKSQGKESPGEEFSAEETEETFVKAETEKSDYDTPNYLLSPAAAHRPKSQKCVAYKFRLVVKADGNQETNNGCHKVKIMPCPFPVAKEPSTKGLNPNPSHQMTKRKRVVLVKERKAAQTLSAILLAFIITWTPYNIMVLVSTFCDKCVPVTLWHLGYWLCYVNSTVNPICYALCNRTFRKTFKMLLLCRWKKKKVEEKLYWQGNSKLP

M1 muscarinic receptor = target: T4, M1 muscarinic receptor (Homo sapiens, UniProt P11229); test: R-SAT competitive antagonist assay; format: cell-based; design: expressed in transfected cells; host or cells: NIH/3T3; conditions: nr = no significant antagonist or inverse agonist activity up to 1 μM, nr* = nr but significant agonist activity
T4 sequence (P11229 1-460): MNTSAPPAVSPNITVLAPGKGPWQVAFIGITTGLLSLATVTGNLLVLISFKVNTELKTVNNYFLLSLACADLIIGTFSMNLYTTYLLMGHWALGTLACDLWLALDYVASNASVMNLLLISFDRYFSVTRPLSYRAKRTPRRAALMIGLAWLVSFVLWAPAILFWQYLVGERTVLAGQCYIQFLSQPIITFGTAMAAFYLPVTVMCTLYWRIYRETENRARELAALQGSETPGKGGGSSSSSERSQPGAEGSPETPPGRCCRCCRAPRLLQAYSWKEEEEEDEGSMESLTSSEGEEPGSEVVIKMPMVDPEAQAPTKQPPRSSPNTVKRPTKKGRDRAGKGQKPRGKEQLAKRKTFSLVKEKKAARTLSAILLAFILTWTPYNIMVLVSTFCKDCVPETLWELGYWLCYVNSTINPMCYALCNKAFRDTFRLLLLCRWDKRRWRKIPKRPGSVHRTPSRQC

Chain of 5-HT6A receptor (P50406 whole entry): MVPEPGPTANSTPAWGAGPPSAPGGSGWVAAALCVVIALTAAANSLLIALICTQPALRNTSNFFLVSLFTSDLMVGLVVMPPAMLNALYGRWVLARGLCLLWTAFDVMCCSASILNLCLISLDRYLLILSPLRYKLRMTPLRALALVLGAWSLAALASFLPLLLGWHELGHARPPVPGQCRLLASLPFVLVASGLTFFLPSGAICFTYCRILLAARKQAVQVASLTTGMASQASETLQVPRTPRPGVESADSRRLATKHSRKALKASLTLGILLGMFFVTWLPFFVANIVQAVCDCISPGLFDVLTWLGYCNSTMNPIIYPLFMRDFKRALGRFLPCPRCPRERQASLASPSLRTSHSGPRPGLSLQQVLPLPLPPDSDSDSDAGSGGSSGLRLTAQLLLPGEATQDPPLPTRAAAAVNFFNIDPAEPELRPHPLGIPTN
Chain of 5HT6 receptors (P50406 whole entry): as above
Chain of M3 receptors (P20309 whole entry): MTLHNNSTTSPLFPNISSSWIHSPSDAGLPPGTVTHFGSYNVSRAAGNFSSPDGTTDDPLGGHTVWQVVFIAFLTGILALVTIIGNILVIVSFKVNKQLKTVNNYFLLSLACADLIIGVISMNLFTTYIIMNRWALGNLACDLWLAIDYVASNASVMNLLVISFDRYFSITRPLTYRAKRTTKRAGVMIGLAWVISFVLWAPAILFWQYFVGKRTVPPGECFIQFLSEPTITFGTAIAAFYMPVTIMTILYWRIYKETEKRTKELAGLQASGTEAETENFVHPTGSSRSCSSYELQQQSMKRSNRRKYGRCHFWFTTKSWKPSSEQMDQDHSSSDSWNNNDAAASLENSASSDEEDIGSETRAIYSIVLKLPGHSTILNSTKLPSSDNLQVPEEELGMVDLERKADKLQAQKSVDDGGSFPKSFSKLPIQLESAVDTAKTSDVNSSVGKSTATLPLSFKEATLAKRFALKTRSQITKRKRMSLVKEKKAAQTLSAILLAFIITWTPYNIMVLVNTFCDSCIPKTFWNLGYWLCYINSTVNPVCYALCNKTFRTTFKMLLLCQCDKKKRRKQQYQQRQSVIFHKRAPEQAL
Chain of D25 receptors (P14416 1-414 isoform P14416-2): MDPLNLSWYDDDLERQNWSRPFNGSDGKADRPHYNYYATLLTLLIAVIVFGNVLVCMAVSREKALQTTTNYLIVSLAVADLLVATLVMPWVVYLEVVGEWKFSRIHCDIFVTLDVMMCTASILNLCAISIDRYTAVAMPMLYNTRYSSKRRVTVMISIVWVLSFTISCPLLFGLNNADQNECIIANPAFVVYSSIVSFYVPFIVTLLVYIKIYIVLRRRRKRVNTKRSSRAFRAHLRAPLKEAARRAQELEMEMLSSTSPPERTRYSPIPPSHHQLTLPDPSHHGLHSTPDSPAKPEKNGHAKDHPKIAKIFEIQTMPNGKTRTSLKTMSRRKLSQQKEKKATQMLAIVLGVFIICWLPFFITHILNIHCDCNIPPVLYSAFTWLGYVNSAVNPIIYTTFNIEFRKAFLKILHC
Chain of 5HT3 receptors (P46098 24-478): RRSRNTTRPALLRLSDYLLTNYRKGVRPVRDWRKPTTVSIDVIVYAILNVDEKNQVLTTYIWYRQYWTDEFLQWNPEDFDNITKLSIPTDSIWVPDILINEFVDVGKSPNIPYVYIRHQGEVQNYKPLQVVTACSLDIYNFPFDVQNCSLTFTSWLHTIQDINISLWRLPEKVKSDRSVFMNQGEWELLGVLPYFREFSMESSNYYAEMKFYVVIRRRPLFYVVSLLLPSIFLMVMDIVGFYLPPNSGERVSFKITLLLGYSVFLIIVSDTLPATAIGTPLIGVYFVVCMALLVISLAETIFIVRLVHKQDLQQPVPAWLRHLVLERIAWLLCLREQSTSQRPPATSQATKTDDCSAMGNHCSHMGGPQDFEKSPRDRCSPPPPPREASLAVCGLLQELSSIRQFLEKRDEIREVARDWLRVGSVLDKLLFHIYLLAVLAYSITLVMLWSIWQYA

Clc1ccc2c(c1)N=C(N1CCNCC1)c1ccccc1N2 [NDMC, 8-chloro-11-(1-piperazinyl)-5H-dibenzo [b,e][1,4] diazepine]
inhibition of binding, α1 (α1 receptors): ≥ 90% | inhibition at 10 µM (D25 receptors): ≥ 90% | inhibition at 10 µM (M1 receptors): ≥ 90% | inhibition at 10 µM (M3 receptors): ≥ 90% | inhibition at 10 µM (5HT3 receptors): ≥ 90% | inhibition at 10 µM (5HT6 receptors): ≥ 90% | pKi α1A, competitive antagonist [1]: 7.3 ± 0.1 | share of total serum clozapine concentrations [2]: 40-75% | Ki [3]: 0.0501 µM | EC50 (5-HT6A receptor): 0.126 µM | pEC50 5HT6A, inverse agonist (5-HT6A receptor; R-SAT, nr = no significant antagonist or inverse agonist activity up to 1 μM): 6.9 ± 0.1 | pKi 5-HT1A, competitive antagonist (5-HT1A receptor): nr and nr^1 | EC50 (M5 muscarinic receptor; R-SAT agonist, read-out: M5 pEC50 (converted)): 0.0234 µM and 0.0251 µM | M5 Efficacy (M5 muscarinic receptor; R-SAT, relative to carbachol, No response/nr = no agonist activity up to 10 μM): 48 ± 6% | Ki (M5 muscarinic receptor; functional pharmacological screen, read-out: Ki, partial agonist of M5): 0.025 µM | pKi M1, competitive antagonist (M1 muscarinic receptor): nr*

Source: patent US20050085463A1 (priority 2003, published 2005)
